Data from patent publication US20120115817A1, “PHTHALIMIDE DERIVATIVES OF NON-STEROIDAL ANTI-INFLAMMATORY COMPOUNDS AND/OR TNF-ALPHA MODULATORS, METHOD FOR PRODUCING SAME, PHARMACEUTICAL COMPOSITIONS CONTAINING SAME AND USES THEREOF FOR THE TREATMENT OF INFLAMMATORY DISEASES” (EMS S.A., priority 2009, published 2012).
“Also recorded” adds a separate entry of the source.

Tests used:
gastric mucosa = experiment: Gastric lesion test (gastric ulcerogenesis); assay type: in vivo, rat; parameters: key to grade of gastric lesion (ulceration): ground zero for the ulceration of compounds that do not damage the gastric lining; lesions <1 mm=grade 1; 1.5 to 2.5 mm grade 2; 2.5 to 3.5 mm=grade 3; 3.5 to 4.5 mm, and grade 4; >4.5 mm=grade 5; conditions: for grade of gastric lesion (ulceration) / change in color or morphology of the gastric mucosa / lesion on the gastric lining / gastric ulceration: single dose of 100 μmol/kg; for grade of gastric lesion (ulceration): scale zero to 5
Text: We performed the evaluation of gastric lesions caused by new anti-inflammatory derived from phthalimide of the invention and compared with standard anti-inflammatory drugs (without molecular modification). The compounds were classified according to the grade of damage caused on a scale ranging from 1-5. It was assumed that: lesions <1 mm=grade 1, 1.5 to 2.5 mm grade 2, 2.5 to 3.5 mm=grade 3, 3.5 to 4.5 mm, and grade 4=>4.5 mm=grade 5. The results obtained were reported as averages±E. P. M. All results were submitted to the variance homogeneity test (Levene's Test) to confirm homogeneity. The results with not significant p (above 0.05), were subsequently subjected to Variance Analysis (ANOVA) followed by multiple comparison test (post hoc analyses) such as the Newman-Keul's test, and only the values of p were considered when they were equal or below 0.05.
The stomachs were also evaluated on the number of lesions observed.
In order to characterize the profile of gastric lesion caused by the new anti-inflammatory derivatives of the invention the extent of the lesions caused by the administration of said anti-inflammatory agents was measured.
The gastric ulcerogenesis was verified in the same animals from the groups used for the paw's edema model.
After six hours of readings of the legs, the animals were euthanized in CO2 and had their stomachs removed, opened towards greater curvature and washed with saline.
Through the exposure of the mucosa its color and integrity were shown. In the case of the existence of lesions, these were counted and measured according to the rate of gastric ulcerogenesis (IUG), which abides by numerical criteria for the classification of gastric mucosal lesions: (lesions <1 mm=1; 1.5 to 2.5 mm=2; 2.5 to 3.5 mm=3, 3.5 to 4.5 mm=4 and >4.5 mm=5). The results obtained were reported as averages±E. P. M.

[1] = tested on: rat paw edema induced by carrageenan; experiment: Rat paw edema induced by carrageenan; assay type: in vivo, Wistar rat; conditions: orally; for anti-inflammatory activity compared with carrageenan-only control / anti-inflammatory activity compared with the standard NSAID: single dose of 100 μmol/kg
Description: The anti-inflammatory activity of new phthalmidic derivatives claimed in this patent was evaluated through the model of paw edema induced by carrageenin.
The methodology to be reported can be found in detail in Bandarage, U. K.; Chen, L.; Fang, X.; Garvey, U. S.; Glavin, A.; Janero, D. R.; Letts, L. G.; Mercer, G. J.; Saha, J. K.; Schroeder, J. D.; Shumway, M. J.; Tam, S. W. Nitrosothiol Esters of Diclofenac: Synthesis and Pharmacological Characterization of the Gastrointestinal-Sparing Prodrugs. J. Med. Chem. v. 43, p. 4005-4016, 2000.
The injection of carrageenan in Wistar rat paw causes edema and local inflammation which can be seen by the increased thickness of the rat paw. Pre-treatment with compounds that have anti-inflammatory activity decreases the edema and inflammation caused by carrageenan administration.
The compounds of this invention have been administrated one (1) hour before inoculation of the irritating agent, carrageenan in the paws of the animals with the aid of a gavage tube orally, using water as a solvent.
The monitoring of the inflammation and the anti-inflammatory activity of the compounds of the invention was made by measuring the thickness in millimeters, of the rat's paw.
The control group received sub plantar injection, in the hind paws, the irritating chemical agent, carrageenan, and saline solution, orally.
The hind paws were measured before treatment and hourly for 6 hours after administration of carrageenan, through the thickness to determine their volumes (in mm). The results were expressed as the difference between the readings of the paws before and after treatments.

[2] = tested on: abdominal contortions induced by acetic acid; experiment: Abdominal contortion test induced by acetic acid; assay type: in vivo, Swiss mice; conditions: mice, oral; for inhibitory activity of abdominal contortion: 100 μmol/kg (FIG. 8); for Average (abdominal contortions): acetic acid 0.1 N; for % of inhibition of abdominal contortions: acetic acid 0.1 N (Table 2)
Description: Additionally, we conducted the evaluation of possible adverse reactions of the compounds of the invention through the abdominal contortion test induced by acetic acid. […] The results are represented in FIG. 8.
The antinociceptive profile was evaluated by testing abdominal contortions induced by acetic acid in mice. In this assay, there were used Swiss mice of both sexes weighing between 21 and 28 g, fasted for a period of approximately 8 hours. The test-substance was administered orally and had as the gum Arabic at 5% as vehicle. One hour later, it was administered acetic acid at 0.1 N (0.1 mL/10 g weight) in the peritoneal cavity of the animals. Ten minutes after injection of acetic acid, the contortions were counted for 20 minutes.

[3] = tested on: abdominal contortions induced by acetic acid; conditions: reports in the literature; cited from earlier work

Compound | grade of gastric lesion (ulceration) (gastric mucosa; rat) | anti-inflammatory activity compared with carrageenan-only control [1] | inhibitory activity of abdominal contortion [2] | Average (abdominal contortions) ([2]; 100 μmol/kg) | % of inhibition of abdominal contortions ([2]; 100 μmol/kg) | change in color or morphology of the gastric mucosa (gastric mucosa; rat) | lesion on the gastric lining / gastric ulceration (gastric mucosa; rat) | further results
Cc1ccc(Nc2c(F)cccc2Cl)c(CC(=O)O)c1 [lumiracoxib, reference compound] | 2 (1.5 to 2.5 mm grade 2) | – | – | – | – | – | – | –
CC(C)Cc1ccc(C(C)C(=O)O)cc1 (stereo not shown) [ibuprofen, reference compound] | 5 (>4.5 mm=grade 5) | – | – | – | – | – | – | –
O=C(Cc1ccccc1Nc1c(Cl)cccc1Cl)NN1C(=O)c2ccccc2C1=O [Example 5.3, 2-{2-[(2,6-dichlorophenyl)amino]phenyl}-N-(1,3-dioxy-1,3-dihydro-2H-isoindol-2-yl)acetamide] | zero | significant anti-inflammatory activity | ~16.2% | 55.1 | 16.2% | a little change in the color of the mucosa | no lesion on the gastric lining | anti-inflammatory activity compared with diclofenac at 120 minutes ([1]; 100 μmol/kg, time of 120 minutes): significantly higher anti-inflammatory activity than that of diclofenac; anti-inflammatory activity compared with diclofenac at 240 and 360 minutes ([1]; 100 μmol/kg, times 240 and 360 minutes): same activity profile is kept; anti-inflammatory activity compared with the standard NSAID [1]: significant anti-inflammatory activity when compared to positive control (carrageenan), and to diclofenac
Cc1ccc(Nc2c(F)cccc2Cl)c(CC(=O)NN2C(=O)c3ccccc3C2=O)c1 [Example 6.3, 2-{2-[(2-chloro-6-fluorophenyl)amine]-5-methylphenyl}-N-(1,3-dioxy-1,3-dihydro-2H-isoindol-2-1)acetamide] | zero | significant anti-inflammatory activity | – | – | – | did not observe any—macro- and microscopically—morphological change or in the color of the stomach tissue | no lesion on the gastric lining | –
O=C(O)Cc1ccccc1Nc1c(Cl)cccc1Cl [diclofenac, reference compound] | 5 (>4.5 mm=grade 5) | – | – | – | – | – | – | analgesic activity in this model according to the literature [3]: do not have analgesic activity
COc1ccc2cc(C(C)C(=O)NN3C(=O)c4ccccc4C3=O)ccc2c1 (stereo not shown) [Example 3.3, N-(1,3-dioxy-1,3-dihydro-2H-isoindol-2-yl)-2-(6-methoxy-2-naphtyl)propanamide] | zero | significant anti-inflammatory activity | around 42.5% | 37.8 | 42.5% | did not observe any—macro- and microscopically—morphological change or in the color of the stomach tissue | no lesion on the gastric lining | anti-inflammatory activity compared with the standard NSAID [1]: superior activity compared with ibuprofen; also recorded: much greater than naproxen
Cc1ccc(-c2cc(C(F)(F)F)nn2-c2ccc(S(N)(=O)=O)cc2)cc1 [celecoxib, reference compound] | 2 (1.5 to 2.5 mm grade 2) | – | – | – | – | – | – | –
O=C(NN1C(=O)c2ccccc2C1=O)c1ccccc1O [Example 1.3, N-(1,3-dioxy-1,3-dihydro-2H-isoindol-2-yl)-2-hydroxybenzamide] | 1 (lesions <1 mm=grade 1) | significant anti-inflammatory activity | around 17.2% | 54.5 | 17.2% | – | – | analgesic activity ([2]; 100 μmol/kg): showed no analgesic activity; total area of lesions (gastric mucosa; observed in six stomachs, 100 μmol/kg): 2.9 mm^2; size of microlesions on the stomach lining (gastric mucosa; rat, 100 μmol/kg): less than 1 mm
O=C(O)c1ccccc1O [salicylic acid, reference compound] | 5 (>4.5 mm=grade 5) | – | – | – | – | – | – | –
CC(C(=O)NN1C(=O)c2ccccc2C1=O)c1cccc(C(=O)c2ccccc2)c1 (stereo not shown) [Example 4.3, 2-(3-benzoylphenyl)-N-(1,3-dioxy-1,3-dihydro-2H-isoindol-2-yl)propanamide] | – | – | ~37.9% | 40.8 | 37.9% | – | – | –
COc1ccc2cc([C@H](C)C(=O)O)ccc2c1 [naproxen, reference compound] | 5 (>4.5 mm=grade 5) | – | about 43% | – | – | – | – | –
CC(C)Cc1ccc(C(C)C(=O)NN2C(=O)c3ccccc3C2=O)cc1 (stereo not shown) [Example 2.3, N-(1,3-dioxy-1,3-dihydro-2H-isoindol-2-yl)-2-(4-isobutylphenyl)propanamide] | zero | significant anti-inflammatory activity | – | – | – | a little change in color of the mucosa | no lesion on the gastric lining | anti-inflammatory activity compared with the standard NSAID [1]: superior activity compared with ibuprofen
